In patent US9421193B2, “Benzothiazole derivatives and a use thereof for the treatment of cancer” (Korea Institute of Radiological & Medical Sciences, priority 2014, dated 2016):

Columns and labels:
[1] = tested on: non-small cell lung cancer cell strain H460; assay: Morphological changes, inverted microscope 200×; type: cell-based, human; settings: 50 μM, 48 hours
Experimental: After the incubation along with 50 μM of the compounds PB01 or PB11 for 48 hours, morphological changes in the non-small cell lung cancer cell strain H460 were observed using an inverted microscope at a magnification of 200×.

[2] = tested on: non-small cell lung cancer cells H460; assay: Sub-G1 phase cell number, propidium iodide flow cytometry; type: cell-based, human; settings: 50 μM, 48 hours
Experimental: (§1) After incubation of the non-small cell lung cancer cells A549 and H460 treated with 50 μM of the compound PB01 or PB11 of Examples ?5 and 3 for 48 hours, the non-small cell lung cancer cells A549 and H460 were collected and floated with a 1×PBS (pH 7.4), followed by fixing at about −20° C. with a 70% cold ethanol, washing twice with a 1×PBS, and then staining with 10 μg/mL of propidium iodide (including 0.5% of PI, Tween-20, 100 μg/mL of 0.1% RNase) at room temperature for about 30 minutes. The stained cells were analyzed by flow cytometry with a FACScan™ (available from Becton Dicknson).

[3] = tested on: non-small cell lung cancer cells A549; assay: as above; type: cell-based, human; settings: 50 μM, 48 hours
Experimental: as §1

[4] = tested on: non-small cell lung cancer cell strain A549; assay: Trypan blue live cell count (cell viability); type: cell-based, human; settings: for cancer cell apoptosis effect: 50 μM; for cancer cell apoptosis effect with respect to concentration and incubation time: 10-50 uM, 8 to 72 hours, FIG. 3A; for IC50: Homo sapiens, time taken to reach the IC50 48 hours
Experimental: (§2) Whether the cancer cell growth inhibitory effects of the compounds PB01 and PB11 on the non-small cell lung cancer cell strains is associated with apoptosis was investigated. The cell growth inhibitory effects were evaluated by a trypan blue assay, and cell shapes were observed using an inverted microscope. The shapes of cell nuclei were observed via Hoeschst 33342 staining. Degrees of inducing apoptosis were quantized by flow cytometry (fluorescent activated cell sorting (FACS)).
(§3) After about 5×10^3 cells per well of each of the human non-small cell lung cancer cell strains A549 and H460 were portioned into a 96-well plate, about 10 uM to about 50 uM of the compounds PB01 or PB11 in 200 ul of culture solution were added into the wells, and incubated for about 8 to 72 hours. Cells were collected from the incubation product, and centrifuged at about 2,000 rpm for 5 minutes. After removing a supernatant, the remaining cells were mixed with 1 mL of phosphate-buffered saline (PBS) to obtain a cell suspension, which was then mixed with an equal amount of 0.5% trypan blue (Gibco BRL), followed by treatment for about 1 minute. The number of live cells was counted using a phase-contrast) microscope. The live cell counting was repeated three times, and an average live cell count and a standard error were calculated using a Microsoft Excel program. Cell viability graphs with respect to compound concentration and incubation time were obtained. The same experiment was performed with 50 μM of the compound PB01, PB11 50 μM of the compound PB11, or 150 μM of the compound PB12 150 μM, and cell viability graphs with respect to compound concentration and incubation time were obtained.

[5] = tested on: non-small cell lung cancer cell strain H460; assay: Trypan blue live cell count (cell viability); type: cell-based, human; settings: for cancer cell apoptosis effect: 50 μM; for cancer cell apoptosis effect with respect to concentration and incubation time: FIGS. 3A and 3B, PB12 at 150 μM; for IC50: Homo sapiens, NCI-H460, time taken to reach the IC50 48 hours
Experimental: as §2, §3

[6] = tested on: 3T3-L1 cells; assay: PPAR-γ ligand identification test: adipogenesis induction, Oil-Red-O staining; type: cell-based; settings: 10 μM, about 48 hours
Experimental: The ability to induce adipogenesis of the compound PB11 of Example 3 and the compound PB01 of Example 5 was tested to identify whether the compounds PB11 and PB01 had activity of PPAR-γ ligands. 3T3-L1 cells (American Type Culture Collection, Manassas, Va.) were treated with 10 μM of the compounds PB11 or PB01 to induce adipogenesis. 3T3-L1 cells without any treatment, those treated with the same concentration of ciglitazone, and those treated with the same concentration of GW9662 (Cayman, Ann Arbor, Mich.) known as PPAR-γ ligand antagonist were used as control groups. After the induction of adipogenesis for about 48 hours, a degree of adipogenesis was identified by Oil-Red-O staining.
FIG. 1 illustrates the results of imaging degrees of adipogenesis via Oil-Red-O staining after the treatment of 3T3-L1 cells with control compounds and 10 μM of the compounds PB01 or PB11 of Examples 3 and 5 for about 48 hours to induce adipogenesis.

[7] = tested on: non-small cell lung cancer cell strain A549; assay: Nuclear agglutination and segmentation, Hoechst 33342 staining; type: cell-based, human; settings: 50 uM, about 48 hours
Experimental: (§4) To observe typical nuclear morphological changes from cell death, the cells treated with the compounds PB01 or PB11 of Examples 5 and 3 were collected, followed by removing a supernatant. After 500 μl of a fixing solution as a 1:9 mixture of a 37% formaldehyde solution and PBS buffer solution was added into the remaining cells, thoroughly mixed together, and left at room temperature for about 10 minutes for fixation. After the fixed cells were centrifuged at about 2,000 rpm for about 5 minutes, the fixing solution was removed, and the remaining cells were floated in a PBS buffer solution. After dropping the floating cells onto a slide glass, followed by cytospinning at about 1,000 rpm for about 5 minutes to fix the floating cells onto the slide glass. The slide glass with the fixed cells was treated with 2 μg/mL of a Hoechst 33342 solution (Sigma, St. Louis, Mo., U.S.A), followed by staining at room temperature for about 20 minutes. After termination of the staining, the staining reagent was washed out, and nuclear morphological changes in the cancer cells were observed by florescent microscopy (ECLIPSE E600; Nikon, Tokyo, Japan) at a 400× magnification.

[8] = tested on: non-small cell lung cancer cell strain H460; assay: as above; type: cell-based, human; settings: 50 uM, about 48 hours
Experimental: as §4

[9] = tested on: non-small cell lung cancer cell strain A549; assay: Apoptosis ratio, Annexin V flow cytometry; type: cell-based, human; settings: 50 μM, about 40 hours, FIG. 9A
Experimental: (§5) About 5×10^5 cells per well of each of the non-small cell lung cancer cell strains A549 and H460 were portioned into a 6-well plate and then incubated with the compounds PB01 or PB11 for about 40 hours in the same manner as described above. A cell layer was washed with PBS and then treated with trypsin-EDTA solution to isolate cells. The isolated cells were collected and stained with an Annexin V Flous Staining kit (available Roche Applied Science, Penzberg, Germany) in a dark condition for about 30 minutes. The stained cells were analyzed by flow cytometry using a FACScan™ (available from Becton Dicknson) to count the number of dead cells and then calculate an apoptosis ratio. The same experiment was performed with 50 μM of PB01, 50 μM of PB11, or 150 μM of PB12 in the same manner as described above. The graphs of cell viability with respect to compound concentration and incubation time obtained based on the experimental results are shown in FIGS. 9A and 9B.

[10] = tested on: non-small cell lung cancer cell strain H460; assay: Apoptosis ratio, Annexin V flow cytometry; type: cell-based, human; settings: about 40 hours, 50 μM PB01, 50 μM PB11, 150 μM PB12, FIGS. 9A and 9B
Experimental: as §5

With `Cc1noc(C)c1CSc1nc2ccc(NC(=O)C3CCC(=O)CC3)cc2s1` [PB11] as the molecule, how does the morphological changes [1] read?
The morphological changes was “lose adhesion with reduced density”.

And the “number of sub-G1 phase cells” value [2]?
Its value is “sharp increase”.

What about the “number of sub-G1 phase cells” value [3] of the same molecule?
The value was “sharp increase”.

And the “cancer cell apoptosis effect” value [4]?
Its value is “remarkable cancer cell apoptosis effects”.

What about the “cancer cell apoptosis effect with respect to concentration and incubation time” value [4] of the same molecule?
Its value is “improved cancer cell apoptosis effects with increases in concentration and incubation time”.

And the IC50 [4]?
The IC50 was 50 µM.

And the “cancer cell apoptosis effect” value [5]?
Its value is “remarkable cancer cell apoptosis effects”.

What about the “cancer cell apoptosis effect with respect to concentration and incubation time” value [5] of the same molecule?
The value was “improved cancer cell apoptosis effects with increases in concentration and incubation time”.

And the IC50 [5]?
Its IC50 is 50 µM.

What about the PPAR-γ ligand identification [6] of the same molecule?
Its PPAR-γ ligand identification is “found to be PPAR-γ ligands”.

And the “ability to induce adipogenesis” value [6]?
Its value is “high activity in adipogenesis induction”.

And the “nuclear morphological changes (apoptotic bodies)” value (“nuclear morphological changes” for short) [7]?
The value was “increased apoptotic bodies due to nuclear agglutination”.

And the “nuclear morphological changes” value [8]?
The value was “increased apoptotic bodies due to nuclear agglutination”.

And the “apoptosis induction (Annexin V)” value [9]?
The value was “kill the non-small cell lung cancer cells by inducing apoptosis”.

And the “apoptosis induction (Annexin V)” value [10]?
The value was “kill the non-small cell lung cancer cells by inducing apoptosis”.

For `COC1CCC(C(=O)Nc2ccc3nc(SCc4c(C)noc4C)sc3c2)CC1` (stereo not drawn) [PB01], which morphological changes [1] is on record?
Its morphological changes is “lose adhesion with reduced density”.

What about the “number of sub-G1 phase cells” value [2] of the same molecule?
Its value is “sharp increase”.

And the “number of sub-G1 phase cells” value [3]?
Its value is “sharp increase”.

What about the “cancer cell apoptosis effect” value [4] of the same molecule?
Its value is “remarkable cancer cell apoptosis effects”.

What about the “cancer cell apoptosis effect with respect to concentration and incubation time” value [4] of the same molecule?
The value was “improved cancer cell apoptosis effects with increases in concentration and incubation time”.

What about the IC50 [4] of the same molecule?
Its IC50 is 50 µM.

What about the “cancer cell apoptosis effect” value [5] of the same molecule?
Its value is “remarkable cancer cell apoptosis effects”.

What about the “cancer cell apoptosis effect with respect to concentration and incubation time” value [5] of the same molecule?
The value was “improved cancer cell apoptosis effects with increases in concentration and incubation time”.

What about the IC50 [5] of the same molecule?
The IC50 was 50 µM.

What about the PPAR-γ ligand identification [6] of the same molecule?
The PPAR-γ ligand identification was “found to be PPAR-γ ligands”.

What about the “ability to induce adipogenesis” value [6] of the same molecule?
The value was “outstanding ability to induce adipogenesis”.

What about the “nuclear morphological changes” value [7] of the same molecule?
Its value is “increased apoptotic bodies due to nuclear agglutination”.

And the “nuclear morphological changes” value [8]?
The value was “increased apoptotic bodies due to nuclear agglutination”.

What about the “apoptosis induction (Annexin V)” value [9] of the same molecule?
Its value is “kill the non-small cell lung cancer cells by inducing apoptosis”.

What about the “apoptosis induction (Annexin V)” value [10] of the same molecule?
The value was “kill the non-small cell lung cancer cells by inducing apoptosis”.
